In patent US20240042065A1, “THERANOSTIC AGENTS” (priority 2022, published 2024):

Assay: NMR relaxivity studies (R1 relaxivity)
Format: physicochemical
Conditions: Gd(III) complexes of DTPA analogues
Procedure: The potential of L1 and L2 to be used in magnetic resonance imaging/Optical Imaging (MRI/OI) was evaluated by measuring their (a) thermodynamic stability by stability constants with potentiometric titrations; (b) R1 relaxivities by NMR relaxivity studies and (c) spectrophotometric (luminescence) investigations.
The diagnostic moiety of the theranostic agent of the present invention enhances MR images when the patient is subjected to the magnetic field of the MR scanning machine by altering the T1 relaxation of local water protons. The paramagnetic relaxation of water protons arises as a result of dipole-dipole interactions between the proton nuclear spins and that of the oscillating magnetic field of MR machine caused by the interaction with the unpaired electron spins of paramagnetic metal ion in the complex, under pulse of radio frequency. The overall paramagnetic water proton relaxation rate enhancement (i.e. proton relaxivity) is governed by two factors, namely inner sphere and outer sphere contributions. […] This profile measures molecular dynamics taking place within the said complex understudy in a quantitative manner in the time scales of milliseconds to nanoseconds. […]

Q: Which “relaxivity (in words)” value does the source give for O=C(O)CN(CCN(CCN(CC(=O)O)CC(=O)O)CCN1C(=O)c2cccc3cccc(c23)C1=O)CC(=O)O [Type A] here?
A: The value was “high relaxivity”.
